Experimental data reported in patent publication US8349870B2 (priority 2008, dated 2013).
Read-outs that look alike come from different tables or passages of the source.

Columns and labels:
Type in all cases: in vivo
Plasmopara viticola = experiment: Test A: grape downy mildew, spray after inoculation, visual disease rating (% disease control); settings: 100 = 100% disease control, 0 = no control
Description: General protocol for preparing test suspensions for Test A-C: The test compounds were first dissolved in acetone in an amount equal to 3% of the final volume and then suspended at the desired concentration (in ppm) in acetone and purified water (50/50 mix by volume) containing 250 ppm of the surfactant Trem® 014 (polyhydric alcohol esters). The resulting test suspensions were then used in Tests A-C. Spraying a 200 ppm test suspension to the point of run-off on the test plants was equivalent to a rate of 500 g/ha.
Grape seedlings were inoculated with a spore suspension of Plasmopara viticola (the causal agent of grape downy mildew) and incubated in a saturated atmosphere at 20° C. for 24 h. After a short drying period, the test suspension was sprayed to the point of run-off on the grape seedlings, which were then moved to a growth chamber at 20° C. for 5 days, after which time the grape seedling were placed back into a saturated atmosphere at 20° C. for 24 h. Upon removal, visual disease ratings were made.
Results for Tests A-C are given in Table A. In the table, a rating of 100 indicates 100% disease control and a rating of 0 indicates no disease control (relative to the controls). A dash (-) indicates no test results, “*” indicates compound was tested at 40 ppm and “**” indicates compound was tested at 10 ppm.

Phytophthora infestans [1] = settings: tomato late blight, sprayed the day before inoculation
Phytophthora infestans [2] = settings: tomato late blight, sprayed 17 h after inoculation
[3] = Cmpd No. unmarked, rate not stated in table (b1197 mentions a 200 ppm test suspension)

Compound | Test A rating (% disease control) (Plasmopara viticola; "*" compound tested at 40 ppm) | Test B rating (% disease control) (Phytophthora infestans [1]; "*" compound tested at 40 ppm) | Test C rating (% disease control) (Phytophthora infestans [2]; "*" compound tested at 40 ppm) | other results
Cc1ccc(C)c(N=C(NO)N2CCC(c3nc(C4=NOC(c5c(F)cccc5F)C4)cs3)CC2)c1 (stereo not drawn) [compound 25] | 100% | 100% | 99% | –
CSC(=Nc1cc(C)ccc1C)N1CCC(c2nc(C3=NOC(c4ccccc4)C3)cs2)CC1 (stereo not drawn) [Example 1, methyl 4-[4-(4,5-dihydro-5-phenyl-3-isoxazolyl)-2-thiazolyl]-N-(2,5-dimethylphenyl)-1-piperidinecarboximidothioate] | 96% | 97% | 53% | –
Cc1ccc(C)c(N=C(N2CCOCC2)N2CCC(c3nc(C4=NOC(c5ccccc5)C4)cs3)CC2)c1 (stereo not drawn) [compound 30] | 58% | 64% | 17% | –
CCCC(=O)C(=O)N1CCC(c2nc(C3=NOC(c4c(F)cccc4F)C3)cs2)CC1 (stereo not drawn) [compound 67] | 100% | 100% | 99% | –
4-[4-(4,5-dihydro-5-phenyl-3-isoxazolyl)-2-thiazolyl]-N-2-propen-1-yl]-1-piperidinecarbothioamide [Example 5] | 83% | 99% | 73% | –
Cc1ccc(C)c(C(=O)NC(=O)N2CCC(c3nc(C4=NOC(c5c(F)cccc5F)C4)cs3)CC2)c1 (stereo not drawn) [compound 36] | 0% | 99% | 99% | –
CN(C)C(=O)N1CCC(c2nc(C3=NOC(c4ccccc4)C3)cs2)CC1 (stereo not drawn) [compound 11] | – | – | – | Test A rating (% disease control) (Plasmopara viticola; [3]): 0%; Test B rating (% disease control) (Phytophthora infestans [1]; [3]): 0%; Test C rating (% disease control) (Phytophthora infestans [2]; [3]): 0%
Cc1cc(C(F)(F)F)nn1C(=O)C(=O)N1CCC(c2nc(C3=NOC(c4c(F)cccc4F)C3)cs2)CC1 (stereo not drawn) [compound 43] | 0% | 25% | 0% | –
O=C(C(=O)N1CCC(c2nc(C3=NOC(c4c(F)cccc4F)C3)cs2)CC1)c1ccco1 (stereo not drawn) [compound 72] | 100% | 100% | 99% | –
CCCNC(=O)N1CCC(c2nc(C3=NOC(c4ccccc4)C3)cs2)CC1 (stereo not drawn) [compound 14] | – | – | – | Test A rating (% disease control) (Plasmopara viticola; [3]): 88%; Test B rating (% disease control) (Phytophthora infestans [1]; [3]): 100%; Test C rating (% disease control) (Phytophthora infestans [2]; [3]): 99%
O=C(CCOCC(F)(F)F)N1CCC(c2nc(C3=NOC(c4c(F)cccc4F)C3)cs2)CC1 (stereo not drawn) [compound 77] | – | – | – | Test A rating (% disease control) (Plasmopara viticola; "**" compound tested at 10 ppm): 100%; Test B rating (% disease control) (Phytophthora infestans [1]; "**" compound tested at 10 ppm): 100%; Test C rating (% disease control) (Phytophthora infestans [2]; "**" compound tested at 10 ppm): 99%
Cc1ccc(C)c(N=C(NC#N)N2CCC(c3nc(C4=NOC(c5c(F)cccc5F)C4)cs3)CC2)c1 (stereo not drawn) [compound 42] | 99% | 100% | 99% | –
CCONC(=Nc1cc(C)ccc1C)N1CCC(c2nc(C3=NOC(c4c(F)cccc4F)C3)cs2)CC1 (stereo not drawn) [compound 39] | 99% | 100% | 97% | –
CNC(=Nc1cc(C)ccc1C)N1CCC(c2nc(C3=NOC(c4ccccc4)C3)cs2)CC1 (stereo not drawn) [compound 28] | 43% | 95% | 0% | –
O=C(NCC1CCCCC1)N1CCC(c2nc(C3=NOC(c4ccccc4)C3)cs2)CC1 (stereo not drawn) [compound 20] | 95% | 100% | 93% | –
Cc1ccc(C)c(N=C(N)N2CCC(c3nc(C4=NOC(c5c(F)cccc5F)C4)cs3)CC2)c1 (stereo not drawn) [compound 31] | 99% | 100% | 97% | –

Compound | Test A rating (% disease control) (Plasmopara viticola; "*" compound tested at 40 ppm) | Test B rating (% disease control) (Phytophthora infestans [1]; "*" compound tested at 40 ppm) | Test C rating (% disease control) (Phytophthora infestans [2]; "*" compound tested at 40 ppm) | other results
O=C(COCC(F)(F)F)N1CCC(c2nc(C3=NOC(c4c(F)cccc4F)C3)cs2)CC1 (stereo not drawn) [compound 74] | – | – | – | Test A rating (% disease control) (Plasmopara viticola; "**" compound tested at 10 ppm): 100%; Test B rating (% disease control) (Phytophthora infestans [1]; "**" compound tested at 10 ppm): 10%; Test C rating (% disease control) (Phytophthora infestans [2]; "**" compound tested at 10 ppm): 97%
C#CCCC(=O)N1CCC(c2nc(C3=NOC(c4ccccc4F)C3)cs2)CC1 (stereo not drawn) [Example 8, 1-[4-[4-[4,5-dihydro-5-(2-fluorophenyl)-3-isoxazolyl]-2-thiazolyl]-1-piperidinyl]-4-pentyn-1-one] | – | – | – | Test A rating (% disease control) (Plasmopara viticola; [3]): 46%; Test B rating (% disease control) (Phytophthora infestans [1]; [3]): 40%; Test C rating (% disease control) (Phytophthora infestans [2]; [3]): 0%
CC(C)C(=O)C(=O)N1CCC(c2nc(C3=NOC(c4c(F)cccc4F)C3)cs2)CC1 (stereo not drawn) [compound 68] | 99% | 100% | 93% | –
O=C(COCCC(F)(F)F)N1CCC(c2nc(C3=NOC(c4c(F)cccc4F)C3)cs2)CC1 (stereo not drawn) [compound 75] | – | – | – | Test A rating (% disease control) (Plasmopara viticola; "**" compound tested at 10 ppm): 100%; Test B rating (% disease control) (Phytophthora infestans [1]; "**" compound tested at 10 ppm): 100%; Test C rating (% disease control) (Phytophthora infestans [2]; "**" compound tested at 10 ppm): 97%
Cc1cc(C(F)(F)F)nn1C(=O)C(=O)N1CCC(c2nc(C3=NOC(c4ccccc4F)C3)cs2)CC1 (stereo not drawn) [compound 41] | 17% | 26% | 0% | –
Cc1ccc(C)c(C(=O)NC(=O)N2CCC(c3nc(C4=NOC(c5ccccc5F)C4)cs3)CC2)c1 (stereo not drawn) [compound 37] | 0% | 63% | 0% | –
CC(C)CC(=O)C(=O)N1CCC(c2nc(C3=NOC(c4c(F)cccc4F)C3)cs2)CC1 (stereo not drawn) [compound 69] | 99% | 84% | 64% | –
CC(=O)NC(=Nc1cc(C)ccc1C)N1CCC(c2nc(C3=NOC(c4ccccc4)C3)cs2)CC1 (stereo not drawn) [compound 27] | 4% | 99% | 58% | –
CC(=O)C(=O)N1CCC(c2nc(C3=NOC(c4c(F)cccc4F)C3)cs2)CC1 (stereo not drawn) [compound 65] | 88% | 100% | 99% | –
CC(C)(C)NC(=O)N1CCC(c2nc(C3=NOC(c4ccccc4)C3)cs2)CC1 (stereo not drawn) [compound 16] | – | – | – | Test A rating (% disease control) (Plasmopara viticola; [3]): 86%; Test B rating (% disease control) (Phytophthora infestans [1]; [3]): 100%; Test C rating (% disease control) (Phytophthora infestans [2]; [3]): 95%
CCCCCCC(=O)N1CCC(c2nc(C3=NOC(c4c(F)cccc4F)C3)cs2)CC1 (stereo not drawn) [compound 73] | 99% | 100% | 99% | –
CS(=O)(=O)CC(=O)N1CCC(c2nc(C3=NOC(c4c(F)cccc4F)C3)cs2)CC1 (stereo not drawn) [compound 62] | 99% | 99% | 95% | –
Cc1ccc(C)c(C(=O)C(=O)N2CCC(c3nc(C4=NOC(c5ccccc5F)C4)cs3)CC2)c1 (stereo not drawn) [compound 40] | 99% | 100% | 98% | –
Cc1cc(C)c(C(=O)C(=O)N2CCC(c3nc(C4=NOC(c5ccccc5F)C4)cs3)CC2)c(C)c1 (stereo not drawn) [compound 51] | 0% | 52% | 0% | –
Cc1ccc(C)c(N=CN2CCC(c3nc(C4=NOC(c5ccccc5)C4)cs3)CC2)c1.Cl (stereo not drawn) [compound 21] | – | – | – | Test A rating (% disease control) (Plasmopara viticola; [3]): 0%; Test B rating (% disease control) (Phytophthora infestans [1]; [3]): 95%; Test C rating (% disease control) (Phytophthora infestans [2]; [3]): 0%
